# From ChEMBL document CHEMBL1201862, “PubChem BioAssay data set” (2004)
# The source made the active and inactive calls.
# What was measured:
# [1] = control 3'UTR Renilla luciferase suppression, dose response, counter-screen for Shn3 inhibitor project, cell-based, Clone20-Shn3RL, cherry-picked (AID 624133); type: functional
# [2] = tested on: BJ; experiment: cells; type: functional, cell-based; conditions: Homo sapiens
# [3] = NIH-3T3 fibroblast cytotoxicity, dose response, cytotoxicity control, cell-based, fluorescence, Alamar Blue, secondary assay (AID 2327); type: functional;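 also: NIH-3T3 mouse fibroblasts cultured with fluconazole at 8 µg/mL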
# [4] = Counterscreen for AddAB inhibitors: absorbance-based bacterial cell-based high throughput dose response assay for inhibitors of bacterial viability. [Related pubchem assays (depositor defined):AID435030, AID449728, AID449731, AID488942, AID488955, AID488956]; type: functional
# [5] = tested on: Jurkat; experiment: SAR Analysis of small molecule inhibitors of T-cell specific antigen receptor-induced NF-kB activation in a Jurkat cell line using a luminescence assay - Set 2. [Related pubchem assays (depositor defined):AID435003, AID435012, AID465]; type: functional, cell-based; conditions: Homo sapiens
# [6] = C. albicans growth with fluconazole, confirmation, fluorescence, retest (AID 2467); type: functional, cell-based
compound,measurement,setting,value
CCCCC(=O)NC(c1ccc(N(C)C)cc1)c1ccc2cccnc2c1O (stereo unspecified),AC50,[1],> 70 µM (inactive)
same,EC50,[2],3.12 µM (active)
same,EC50,[3],28.4 µM (inconclusive)
same,IC50,[4],> 119 µM (inactive)
same,IC50,[5],1.7 µM (active)
same,EC50,[6],0.832 µM (active)
